Laboratory results published in patent US10004718B2, “Erythropoietin expression promoter” (TOHOKU UNIVERSITY, priority 2012, dated 2018).

Legend:
[1] = system: ISN-1e cells; test: ATP production in islet of Langerhans-derived ISN-1e cells (insulin secretion); format: cell-based, rat; conditions: compound 0.03 to 10 μM, 3 hours
Protocol: The ISN-1e cells were seeded at 2×10^5 cells/well to a 96-well cell culture plate and then cultured overnight. Compound #4 was mixed at each concentration (10, 3, 1, 0.3, 0.1, and 0.03 μM) into RPMI11640 common medium 2. After further culture for 3 hours, the concentration of ATP produced in the medium was measured using ATP Assay Reagent “of Cells” (manufactured by Toyo B-Net Co., Ltd.) and GloMa 96 Microplate Luminometer (manufactured by Promega K.K.). ISN-1e cells cultured in the absence of the compound (DMSO added [1%]) (“control” of FIG. 16) and ISN-1e cells cultured in the presence of an HIF activator (FG-4592 [10, 3, 1, 0.3, and 0.1 μM]) were used as controls.

[2] = Plasma concentration in mice after tail vein administration (LC/MS/MS); format: in vivo, mouse
Protocol: Compound #4 was administered alone to the tail veins of 3 mice (C57BL/6N 8 W, male, 21-25 g). 30 minutes, 1 hour, and 6 hours after the administration, each mouse was cervically dislocated, and 500 μl of blood was collected from the heart. Then, an anticoagulant (10 μl of heparin) was added thereto, and the resulting blood was centrifuged (12000 rpm×20 min, 4° C.) to isolate plasma. DMSO (57 μl) was administered alone to the tail veins of mice, which were in turn used as controls.
The plasma concentration of the compound #4 was quantified using LC/MS/MS constituted by TSQ Quantum Ultra (manufactured by Thermo Fisher Scientific Inc.) and NANOSPACE SI-2 (manufactured by Shiseido Co., Ltd.). Conditions for the selected reaction monitoring (SRM) method of the compound #4 or 2-methyl-5-([2-naphthylamino]carbonyl)-3-thienyl)acetic acid used as an internal standard (hereinafter, referred to as an “internal standard compound”) are “m/z 311.1>116.0 (collision energy, CE=24)” and “m/z 324.1>280.0 (CE=14)”. “Xbridge C18 (150 mm×2.1 mm i.d., 3.5 μm particle size)” was selected as an analytical column. […] The compound #4 and the internal standard compound were detected 8.51 and 9.00 minutes, respectively (upper column of FIG. 10). […] The sample (1 μl) was introduced through a filter to LC/MS/MS to quantify the plasma concentration (μg/ml) of the compound #4 (lower column of FIG. 10).

[3] = Erythrocyte production in mice (Hct value and hemoglobin, i-STAT); format: in vivo, mouse; conditions: 1 mg/200 μl of CMC oral, 7 consecutive days, n=3, mean±standard deviation
Protocol: Compound #4 (1 mg) was mixed with 200 μl of CMC (carboxymethylcellulose). This compound #4 mixed solution (1 mg/200 μl of CMC) was orally administered to each mouse (C57BL/6N 8 W, male, 21-25 g) between 15:00 to 18:00 every day using a sonde. This administration was carried out for 7 consecutive days (n=3). Mice orally given CMC were used as controls (n=3).
24 hours after the final administration, each mouse was cervically dislocated, and 500 μl of blood was collected from the heart. Then, an anticoagulant (10 μl of heparin) was added thereto, and the Hct value and the hemoglobin concentration were measured using i-STAT (manufactured by Fuso Pharmaceutical Industries, Ltd.).

[4] = system: Hep3B cells; test: Cytotoxicity, cell survival rate of Hep3B cells (Cell Counting Kit-8); format: cell-based, human
Protocol: The Hep3B cells were seeded at 1×10^4 cells/well to a 24-well cell culture plate and then cultured under normal oxygen (20% O2) for 24 hours. […] After further culture under normal oxygen (20% O2) for 24 hours, the number of live cells was measured using Cell Counting Kit-8 (manufactured by Dojindo Laboratories) to calculate the survival rate of the cells. Hep3B cells cultured in the absence of the compound (DMSO added [1%]) (“DMSO” of FIG. 9) and Hep3B cells cultured in the presence of HIF activators (DMOG [10 μM] and ciclopirox[10 μM]) (“DMOG” and “Ciclopirox”, respectively, of FIG. 9) were used as controls.

[5] = Liver function in mice (plasma GOT, GPT, erythropoietin); format: in vivo, mouse; conditions: oral, 7 consecutive days
Protocol: Compound #4 (10 mg/100 μl of DMSO) (10 μl) and compound #4 (20 mg/100 μl of DMSO) (15 μl) were mixed with 190 μl and 185 μl, respectively, of corn oil to prepare low-concentration (5 μg/ml) compound #4 and high-concentration (15 μg/ml) compound #4 mixed solutions (200 μl each). Each mixed solution (200 μl) was orally administered to each mouse (C57BL/6N 8 W, male, 21-25 g) between 15:00 to 18:00 every day using a sonde. This administration was carried out for 7 consecutive days (n=4). Mice orally given DMSO were used as controls (n=4).
24 hours after the final administration, each mouse was cervically dislocated, and 500 μl of blood was collected from the heart. Then, an anticoagulant (10 μl of heparin) was added thereto, and the resulting blood was centrifuged (12000 rpm×20 min, 4° C.) to isolate plasma. The plasma concentrations of indexes for liver functions (GOT [glutamic oxaloacetic transaminase] and GPT [glutamic pyruvic transaminase]) were measured using Transaminase CII-Test Wako (manufactured by Wako Pure Chemical Industries, Ltd.) to examine the effect of improving liver functions. Also, the plasma concentration ([…]) of erythropoietin was measured using a kit (Quantikine Mouse/Rat Epo Immunoassay, manufactured by R&D Systems, Inc.).

Compound: O=C(CC(C(=O)O)c1c[nH]c2ccccc12)c1ccc(F)cc1 (stereo not drawn) [compound #4, 4-(4-Fluorophenyl)-2-(1H-indol-3-yl)-4-oxo-butanoic acid]
- ATP concentration in the ISN-1e cells relative to the control [1]: two or more times relative to the control
- time after administration up to which the compound is detected in plasma [2]: at least 6 hours
- detection in plasma ([2]; 30 minutes after the administration): detected at a high level
- Hct value [3]: 47.7±0.816 % PCV
- hemoglobin concentration in the mouse blood [3]: 16.2 ± 0.286 g/dL
- cell survival rate compared with cells cultured in the absence of the compound (DMSO) ([4]; 0.5 μM compound, 24 hours): almost the same
- cell survival rate compared with cells cultured using 0.5 μM compound ([4]; 100 μM compound, 24 hours): approximately 70%
- cell survival rate compared with cells cultured using 0.5 μM compound ([4]; 1, 5, or 10 μM compound, 24 hours): rarely different
- cytotoxicity ([4]; concentration ranging from 0 to 10 μM): hardly exhibit cytotoxicity
- erythropoietin concentration in the mouse plasma ([5]; low concentration (5 μg/ml) and high concentration (15 μg/ml)): elevate the erythropoietin concentration
- GOT concentration in the plasma ([5]; mice): lower
- GPT concentration in the plasma ([5]; mice): lower
